Measurements taken from patent publication US20240374535A1, “COMPOSITIONS AND METHODS FOR TREATING BIOFILM DISORDERS AND INFECTIONS” (AHV International B.V., priority 2021, published 2024).
pIC50: −log10 of the molar value.

Assays:
[1] = test system: Staphylococcus epidermis ATCC 35984; assay: MIC assay (planktonic growth inhibition, OD600); type: cell-based, S. epidermidis; details: 24 h at 37° C.; for pIC50 / S. epidermidis MIC50: minimal concentration reducing final OD600 by 50%; for pIC50: read-out: S. epidermidis MIC50; for IC90 / S. epidermidis MIC90: minimal concentration reducing final OD600 by 90%; for IC90: read-out: S. epidermidis MIC90
Protocol: (§1) The exact weighed amount was noted and the volume of solvent to reach a 80 mM dilution calculated. Half of the volume was added first, by adding Tween 80. In a second step, the other half of the volume DMSO was added and the closed tube inverted 5-10 times and then vortexed very thoroughly for at least 30 seconds. If after this procedure unsolved material was still visible, the tube was placed in a shaker at 37° C. at 150 rpm for at least 30 minutes. […] For the MBEC assay (method 1.3) the solution needs to be diluted to a final concentration of 2 mM in 0.9% saline solution and then further diluted to 1 mM, 0.5 mM, 0.25 mM and 0.125 mM in saline. Those dilutions were added as treatment to the 96 well plates with the grown biofilm (see method 3).
(§2) Frozen aliquots of Staphylococcus epidermis ATCC 35984 and Pseudomonas aeruginosa ATCC 27853 were used to inoculate a tryptic soy agar (TSA) plate and incubated overnight at 37° C. After incubation 3-5 well-isolated colonies with the same morphology were selected from the TSA plate and resuspended in 2 mL 0.9% saline solution with 3-6 glass beads and vortexed. The optical density at 600 nm (OD600) of the bacterial suspension was measured with a spectrophotometer (Evolution™ 201/220 UV-Visible Spectrophotometer, Thermo Fisher Scientific) and diluted to an OD600 of 0.0008, which resembles 10^6 CFU/mL.
(§3) The MIC assay was performed in a flat-bottom 96-microtiter plate. 50 μL of MHB-II was added into columns 2-11, and 100 μL to column 12 for sterility control. 100 μL of the 8 mM test compound solution (method 1) was added to column 1. A two-fold dilution series of the solution in MHB-II was achieved by resuspending 50 μL of the 8 mM solution from column 1 to column 2. This step was repeated until column 10. The respective concentration of Tween 80 and DMSO in column 1 was 2.5%, which is two-fold diluted throughout the plate. 50 μL of the bacterial suspension was added to column 1-11. The microtiter plates were sealed with adhesive polyethylene film for sealing microplates (Diversified Biotech) and incubated for 24 h at 37° C. After incubation the OD was measured at 600 nm with the Varioskan (Thermo Fisher Scientific). […] This assay was repeated three times in three independent experiments.

[2] = test system: Pseudomonas aeruginosa ATCC 27853; assay: MIC assay (planktonic growth inhibition, OD600); type: cell-based, P. aeruginosa; details: 24 h at 37° C.; for pIC50 / IC90: Pseudomonas aeruginosa, ATCC27853; for pIC50 / P. aeruginosa MIC50: minimal concentration reducing final OD600 by 50%; for pIC50: read-out: P. aeruginosa MIC50; for IC90 / P. aeruginosa MIC90: minimal concentration reducing final OD600 by 90%; for IC90: read-out: P. aeruginosa MIC90
Protocol: as §1, §2, §3

[3] = test system: Staphylococcus epidermis ATCC 35984 biofilm; assay: MBEC assay (biofilm eradication, CFU log reduction); type: cell-based, S. epidermidis; details: 48 h grown biofilm, 20 h treatment, CFU log reduction vs untreated; for minimal effective concentration: read-out: S. epidermidis MBEC mM with log reduction ≥1
Protocol: as §1
(§4) Frozen aliquots of Staphylococcus epidermis ATCC 35984 and Pseudomonas aeruginosa ATCC 27853 were used to inoculate 20 mL of Tryptic Soy Broth (TSB) in a 100 mL Erlenmeyer flask at 37° C. and 150 rpm and incubated overnight (Infors). The OD600 of the overnight culture was measured with a spectrophotometer (Evolution™ 201/220 UV-Visible Spectrophotometer, Thermo Fisher Scientific) and diluted to an OD600 of 0.2, which resembles 10^8 CFU/mL. The cell suspension of OD600=0.2 was seeded into a U-bottom-shaped 96 well plates by pipetting 100 μL per well in column 1-11, column 12 was filled with 100 μL medium as sterility control. The 96 well plates were sealed with adhesive polyethylene film for sealing microplates and incubated for 48 h at 37° C. at static conditions. After the biofilm growth phase, 100 μL of treatment solutions (method 1) were added to the vials resulting in treatment concentrations of 1 mM, 0.5 mM, 0.25 mM and 0.125 mM and with the respective concentration of Tween 80 and DMSO each at 0.63%, 0.32%, 0.16% and 0.08%. The same concentration was applied to four different wells of the same bacterial strain, resulting in four replicates for each concentration and strain. The treatment was incubated for 20 h at 37° C. at static conditions. After the treatment the supernatant was carefully removed and the well with the biofilm washed carefully for one time with 200 μL 0.9% saline solution. 200 μL saline solution was added and the biofilm was resuspended thoroughly. When fully homogenized then 20 μL was used for the first dilution in 180 μL 0.9% saline solution, which was prepared in a second plate. This dilution was continued until dilution step 10E−5 and 100 μL of the 10E−4 and 10E−5 dilution plated on a TSA plate. The TSA plates were incubated at 37° C. for 24 h. The colonies on the plates were enumerated, the colony forming units per mL of the dispensed biofilm and averages thereof and the log reduction in comparison with the untreated sample from the same wells plate calculated. Reduction of colony forming units goes hand in hand with the thickness of the biofilm and thus with the number bacteria that are present in the biofilm. Therefore, a significant reduction of colony forming units in the biofilm was defined at the value of log reduction ≥1 or more. This assay was repeated two times in two independent experiments)

[4] = test system: Pseudomonas aeruginosa ATCC 27853 biofilm; assay: as above; type: cell-based, P. aeruginosa; details: 48 h grown biofilm, 20 h treatment, CFU log reduction vs untreated; for minimal effective concentration: Pseudomonas aeruginosa, ATCC27853, read-out: P. aeruginosa MBEC mM with log reduction ≥1
Protocol: as §1, §4

[5] = test system: Staphylococcus epidermis ATCC 35984 biofilm; assay: MBIC assay (biofilm inhibition, crystal violet); type: cell-based, S. epidermidis; details: 48 h incubation, absorbance 540 nm
Protocol: as §1
(§5) Frozen aliquots of Staphylococcus epidermis ATCC 35984 and Pseudomonas aeruginosa ATCC 27853 were used to inoculate a tryptic soy agar (TSA) plate and were incubated overnight at 37° C. After incubation 3-5 well-isolated colonies with the same morphology were selected from the TSA plate and resuspended in 2 mL 0.9% saline solution with 3-6 glass beads and vortexed. The optical density of the bacterial suspension was measured at 600 nm (OD600) with a spectrophotometer (Evolution™ 201/220 UV-Visible Spectrophotometer, Thermo Fisher Scientific) and diluted to an OD600 of 0.2. The MBIC assay was performed in a 96-microtiter plate. 50 μL of TSB was added into columns 2-11, and 100 μL to column 12 for sterility control. 100 μL of the 8 mM test compound solution (method 1) was added to column 1. A two-fold dilution series of the solution in TSB was achieved by resuspending 50 μL of the 8 mM solution from column 1 in column 2. This step was repeated until column 10. The respective concentration of Tween 80 and DMSO in column 1 is at 2.5%, which is two-fold diluted throughout the plate. 50 μL of the bacterial suspension was added to column 1-11. The microtiter plates were sealed with adhesive polyethylene film for sealing microplates (Diversified Biotech) and incubated for 48 h at 37° C. After incubation the supernatant is carefully removed and the well with the biofilm washed for one time with 100 μL 0.9% saline solution. 100 μL 0.1 M HCl was added and incubated for 1 h at room temperature to fix the biofilm. After incubation the HCl was removed and 100 μL crystal violet (0.1% v/v in water) was added and incubated for 30 min at room temperature. The unbound crystal violet was removed and the wells washed one time with 100 μL demineralized water. 100 μL 30% acetic acid was added and incubated for 1 h at 37° C. and 150 rpm. The solution was resuspended and transferred to a flat-bottom 96-well plate and the absorbance measured at 540 nm with the spectrophotometer. This assay was repeated two times in two independent experiments.

[6] = test system: Pseudomonas aeruginosa ATCC 27853 biofilm; assay: MBIC assay (biofilm inhibition, crystal violet); type: cell-based, P. aeruginosa; details: 48 h incubation, absorbance 540 nm
Protocol: as §1, §5

[7] = test system: udder cleft wound; assay: In vivo udder cleft dermatitis test: wound assessment after spray treatment; design: species or system cow; details: for Conclusion (effect on udder cleft wound): over 60 days, all cows of the group
Protocol: An example of a biofilm-related disorder is Udder Cleft Dermatitis (UCD), which relates to a chronic wound. In this Example, di-alkyl thiosulfonates, dialkyl thiosulfinates and di-alkyl disulfides were tested for their effect on cows affected by UCD.
Experiments were performed to examine the effect of various sprays containing water (control), a test compound, or a reference compound (CTC spray, which contains chlorotetracycline hydrochloride, and was obtained from Dechra veterinary products).
0.35 mL of the spray was sprayed on an udder cleft wound per treatment. Treatments took place once a day at t=0, at t=3 days and t=6 days. In Table 6, the assessment qualifications that are used in Table 7, are explained.

| pIC50 [1] | IC90 [1] [mM] | pIC50 [2] | IC90 [2] [mM] | S. epidermidis MIC50 [1] [µM] | S. epidermidis MIC90 [1] [µM] | P. aeruginosa MIC50 [2] [µM] | P. aeruginosa MIC90 [2] [µM] | Compound | minimal effective concentration [3] [mM] | minimal effective concentration [4] [mM] | S. epidermidis MBIC90 [5] [mM] | P. aeruginosa MBIC90 [6] [mM] | S. epidermidis MBEC mM with log reduction ≥1 [3] [mM] | P. aeruginosa MBEC mM with log reduction ≥1 [4] [mM] | Conclusion (effect on udder cleft wound) [7] | inflammation of the udder cleft wound after treatment ([7]; immediately after the treatment, later infection reduced and wound healed) |
| --- | --- | --- | --- | --- | --- | --- | --- | --- | --- | --- | --- | --- | --- | --- | --- | --- |
| 5.00 | 0.03 | 4.70 | 0.03 | – | – | – | – | Clc1ccc(SSc2ccc(Cl)cc2)cc1 [Bis (4-chlorophenyl) disulfide, Bis(4-chlorophenyl) disulfide] | > 1 | > 1 | >4 | >4 | – | – | – | – |
| – | – | – | – | 125 | 250 | 125 | 250 | Cc1ccc(S[S+]([O-])c2ccc(C)cc2)cc1 (stereo not drawn) [Bis (p-tolyl) thiosulfinate] | – | – | >4 | >4 | 1 | 1 | – | – |
| – | – | – | – | 30 | 30 | 60 | 500 | [O-][S+](Cc1ccccc1)SCc1ccccc1 [D-benzyl thiosulfinate, Di-benzyl thiosulfinate] | – | – | 4 | >4 | 1 | 0.125 | – | – |
| < 2.40 | > 4 | < 2.40 | > 4 | – | – | – | – | CC(C)SSC(C)C [Di-isopropyl disulfide] | > 1 | > 1 | – | – | – | – | No effect | – |
| – | – | – | – | 2000 | 2000 | 2000 | 4000 | CC(C)S[S+]([O-])C(C)C (stereo not drawn) [Di-isopropyl thiosulfinate] | – | – | >4 | >4 | 0.5 | 0.125 | – | – |
| < 2.40 | > 4 | < 2.40 | > 4 | – | – | – | – | CCCCSSCCCC [Di-n-butyl disulfide] | > 1 | > 1 | – | – | – | – | No effect | – |
| < 2.40 | > 4 | < 2.40 | > 4 | – | – | – | – | CCCSSCCC [Di-n-propyl disulfide] | > 4 | > 4 | 4 | >4 | – | – | Positive effect | fast inflammation reduction |
| < 2.40 | > 4 | < 2.40 | > 4 | – | – | – | – | Cc1ccc(SSc2ccc(C)cc2)cc1 [Di-p-tolyl disulfide] | > 1 | > 1 | >4 | 4 | – | – | No effect | – |
| – | – | – | – | 1000 | 1000 | 1000 | 1000 | [O-][S+](Sc1ccccc1)c1ccccc1 (stereo not drawn) [Di-phenyl thiosulfinate] | – | – | >4 | >4 | 2 | 2 | No effect | – |

| Compound | pIC50 [1] | IC90 [1] [mM] | pIC50 [2] | IC90 [2] [mM] | S. epidermidis MIC50 [1] [µM] | S. epidermidis MIC90 [1] [µM] | P. aeruginosa MIC50 [2] [µM] | P. aeruginosa MIC90 [2] [µM] | minimal effective concentration [3] [mM] | minimal effective concentration [4] [mM] | S. epidermidis MBIC90 [5] [mM] | P. aeruginosa MBIC90 [6] [mM] | S. epidermidis MBEC mM with log reduction ≥1 [3] [mM] | P. aeruginosa MBEC mM with log reduction ≥1 [4] [mM] | Conclusion (effect on udder cleft wound) [7] | inflammation of the udder cleft wound after treatment ([7]; immediately after the treatment, later infection reduced and wound healed) |
| --- | --- | --- | --- | --- | --- | --- | --- | --- | --- | --- | --- | --- | --- | --- | --- | --- |
| c1ccc(SSc2ccccc2)cc1 [Di-phenyl disulfide] | 3.90 | > 4 | 2.70 | > 4 | – | – | – | – | > 1 | 0.125 | – | – | – | – | No effect | – |
